Data as given in US20220117920A1, “N-Aryl Benzenesulfonamides as Protonophores for the Treatment of Cancers, Metabolic Diseases and Traumatic Brain Injury” (University of Kentucky Research Foundation, priority 2019, published 2022).

How the values were obtained:
[1] = test system: Wnt signaling; assay: Wnt reporter assay, stable HEK293T cell line containing TOPFlash reporter, LiCl-activated; format: cell-based, human
From the text: (§1) To identify novel Wnt regulators by high throughput screening, a stable HEK293T cell line containing the TOPFlash reporter was established. To identify Wnt inhibitors that targeted molecular events downstream of β-catenin, we treated these cells with lithium chloride to inhibit GSK3 and to stabilize β-catenin. […] We also validated the results by transient transfection of Super 8× TOPFlash or 8× FOPFlash into HEK293T cells. […] Since the results from the stable and transient transfection are compatible, we used stable cell lines for all of the other experiments.
(§2) Reporter assay. Wnt reporter assay and cell staining assay have been described previously. We subcloned Super 8×TOPFlash (provided by Professor Randall Moon, University of Washington) into the pGL4.83 [hRlucP/Puro] Vector and transfected it into HEK293T cells. A stable HEK293T cell line containing the TOPFlash reporter was established using puromycin selection. To screen Wnt inhibitors that block the downstream signaling transduction pathway of β-catenin, we treated the reporter cells with 25 mM LiCl to stabilize β-catenin and activate Wnt signaling. The potential Wnt inhibitors identified from screening were validated by transfecting TOPFlash or FOPFlash plus control renilla reporters into HEK293T cells, and then treating the cells with DMSO or testing compounds in DMSO solution. The Wnt signaling was activated by LiCl or Wnt3A treatment.

[2] = test system: AMPK; assay: Western blot of AMPK (T172) and ACC (S79) phosphorylation in CRC cells; format: cell-based, human; conditions: for AMPK activation: concentration not given; for ACC (S79 phosphorylation) / AMPK activity (T172 phosphorylation): 3 μM
Protocol: (§3) Biochemistry. Western blotting: Cells were lysed in the appropriate volume of lysis buffer: 50 mM HEPES, 100 mM NaCl, 2 mM EDTA, 1% (v/v) glycerol, 50 mM NaF, 1 mM Na3VO4, 1% (v/v) Triton X-100, with protease inhibitors. The following antibodies were used: AMPK (Cell Signaling, 2532, Cell Signaling Technologies, Danver, Mass., USA), pAMPK (Cell Signaling, 2535), ACC (Cell Signaling, 3676), pACC (Cell Signaling, 11818), Actin (Sigma, A1978). Antibodies for Axin 2, c-Myc and Cyclin D1 have been described previously. ATP analysis: Cells growing in 12-well plates were treated with DMSO or inhibitors in DMSO solution and lysed by adding 1 mL boiling doubly distilled water. Supernatants were analyzed by luminescence using ATP Determination Kit (Invitrogen, A22066; Thermo Fisher Scientific, Waltham, Mass., USA).

[3] = test system: LS174T cells; assay: ATP analysis (luminescence) in LS174T cells; format: cell-based, human; conditions: 10 mM
Protocol: as §3

[4] = test system: mitochondrial ATP production; assay: Agilent Seahorse XF Real-Time ATP Rate Assay; format: cell-based, human
Protocol: Seahorse assay. Approximately 3×10^4 cells were seeded in XF96 Cell Culture microplate (80 μL of 3.75×10^5 cells/mL) for all experiments. On the next day, cell culture media were replaced with either Seahorse XF modified media with 25 mM glucose and 1 mM pyruvate. After media exchange, cells were treated with 1 μM of oligomycin A, 1.0 μM FCCP and mixture of 1.0 μM of rotenone and 1.0 μM of antimycin A in standard mitochondrial stress test conditions. To determine the uncoupler effects, FCCP was replaced with an equal volume of DMSO, or a compound to be tested in DMSO solution. ATP production rate was analyzed using Agilent Seahorse XF Real-Time ATP Rate Assay.

[5] = test system: DLD-1 cells; assay: Seahorse uncoupling assay (OCR) in DLD-1 cells; format: cell-based, human; conditions: for oxidative phosphorylation: data not shown
[6] = test system: purified mitochondria from mouse liver; assay: Uncoupling assay (OCR) using purified mitochondria from mouse livers; format: biochemical
Protocol: All the steps were carried out at 4° C. or on ice. After mice were euthanized with CO2 followed by rapid decapitation, whole liver was quickly dissected out on a cold block and homogenized using a Teflon-glass dounce homogenizer containing isolation buffer (215 mM mannitol, 75 mM sucrose, 0.1% BSA, 20 mM HEPES, 1 mM EGTA, adjusted to pH 7.2 with KOH). The homogenate was transferred to a 2 mL-microcentrifuge tube and spun at 1,300×g for 3 min. The supernatant was transferred to a fresh 2 mL-microcentrifuge tube and spun at 13,000×g for 10 min. The supernatant was discarded, and the crude mitochondrial pellet was resuspended in a 1.5 mL-microcentrifuge tubes and pelleted again at 10,000×g for 10 min. The supernatant was discarded, and the mitochondrial pellets were resuspended in isolation buffer to obtain an approximate concentration ≥10 mg/mL of mitochondria. The absolute protein concentration was determined using a bicinchoninic acid (BCA) protein assay kit (Pierce, Cat #23,227) by recording absorbance at 560 nm on a Biotek Synergy HT plate reader (Winooski, Vt., USA).
Mitochondrial Bioenergetics Measurements. Mitochondrial bioenergetic measurements were carried out using a Seahorse XFe96 Extracellular Flux Analyzer (Agilent Technologies, Santa Clara, Calif., USA) to measure oxygen consumption rate (OCR) during various states of respiration. The OCR were measured in the presence of different substrates, inhibitors and uncouplers of the electron transport chain using previous methods with slight modifications. The stocks used for the assays were 500 mM pyruvate, 250 mM malate, and 30 mM adenosine diphosphate (ADP), and 1 M succinate (pH for all was adjusted to 7.2). […] Stock solutions of FH535, Y3, FH535-M, and Y3-M were prepared at 5 mM in 100% DMSO. As per the instructions from XFe96 Extracellular Flux kit, the sensor cartridge was hydrated with water and kept at 37° C. overnight before the experiment. One hour before the assay was conducted, water was removed from assay plates and XF calibrant was added before re-incubation. The injection ports A to D of the sensor cartridge were loaded with 25 μL of different combinations of the above substrates/inhibitors/uncouplers as follows. Before loading, the stocks were diluted appropriately in the respiration buffer (RB) (125 mM KCl, 0.1% BSA, 20 mM HEPES, 2 mM MgCl2, and 2.5 mM KH2PO4; pH 7.2) to get the final concentrations in the respiration chamber of 5 μM pyruvate, 2.5 μM malate, 10 μM of succinate and 1 μM ADP (via Port A), 1 μM oligomycin A (via Port B), 4 μM FCCP or 5 μM/1 μM FH535 or 5 μM/1 μM Y3 or 5 μM/1 μM FH535-M or 5 μM/1 μM Y3-M (via Port C) and 0.1 μM antimycin A (via Port D) starting with the initial volume of 175 μL RB in the chamber and diluting it to 9×, 10×, 11× and 12× with every injection through ports A to D, respectively. Once loaded, the sensor cartridge was placed into the Seahorse XFe96 Flux Analyzer for automated calibration. Seahorse Standard XFe96 assay plates were used for loading mitochondria. Initially total mitochondria were diluted to 6 μg/30 μL in RB and 30 μL was loaded in each well resulting in 6 μg mitochondria/well. The assay plates were centrifuged at 3,000 rpm for 4 min at 4° C. to adhere liver mitochondria at the bottom of the wells. After centrifugation, 145 μL RB (pre-incubated to 37° C.) was added without disturbing the mitochondrial layer to obtain a final volume of 175 μL per well. […]

[7] = test system: Wnt signaling; assay: Transient transfection of Super 8× TOPFlash or 8× FOPFlash into HEK293T cells; format: cell-based, human
From the text: as §1
as §2, with “The Wnt signaling was activated by LiCl or Wnt3A treatment.” left out

[8] = test system: LS174T and DLD-1 CRC cells; assay: Cell proliferation assay in colon cancer cells; format: cell-based, human
Protocol: Cell culture. LS174T colon cancer cells were cultured in EMEM (ATCC, 30-2003) containing 10% (v/v) Fetal Bovine Serum (Sigma F0926, Sigma Aldrich Corp., St. Louis, Mo., USA). The DLD-1, SW480 and SW620 colon cancer cells were cultured in DMEM (Sigma D6429) containing 10% (v/v) Fetal Bovine Serum (Sigma, F0926). For proliferation assays, cells (3.5×10^4 cells per well) were split into 12-well plates. After 24 h, 1 μL of each compound in DMSO solution were added to each well. DMSO was used as a control. Each experiment was done in triplicate. Cell viability and number were analyzed using the Vi-Cell XR Cell Viability Analyzer (Beckman Coulter, Indianapolis, Ind., USA).

[9] = test system: Wnt target genes; assay: Western blot of Wnt signaling components and downstream targets in CRC cell lines; format: cell-based, human; conditions: three CRC cell lines
Protocol: as §3

[10] = test system: mitochondrial membrane potential; assay: Mitochondria membrane potential assay (TMRM staining); format: cell-based, human; conditions: FTU-11 at 3 μM
Protocol: Mitochondria Membrane potential assay: DLD-1 and LS174T cells were plated onto 24-well plates and maintained in DMEM (DLD-1) and RPMI1640 (LS174T) with 10% (v/v) (DLD-1) and 5% (v/v) (LS174T) serum for one day. The cells were treated with DMSO or a testing compound in DMSO solution for 2 h, followed by staining with 100 nM tetramethylrhodamine methyl ester perchlorate (TMRM) (Cayman Chemical Company, MI, USA) for 15 min. Cells were rinsed once with PBS and then observed under fluorescence microscopy at 568 nm.

O=CC[C@@H](O)[C@H](O)[C@H](O)CO [2-DG, 2-deoxy-D-glucose]
inhibition of Wnt signaling ([1]; concentration not given): inhibited Wnt signaling
AMPK activation [2]: activated AMPK
ATP levels [3]: reduced ATP levels

N#Cc1c(O)c2c(-c3ccc(-c4ccccc4O)cc3)csc2[nH]c1=O [A769662, 4-hydroxy-3-(2′-hydroxy-[1,1′-biphenyl]-4-yl)-6-oxo-6,7-dihydrothieno[2,3-b]pyridine-5-carbonitrile, reference compound]
inhibition of Wnt signaling ([1]; 10 μM): did not inhibit Wnt signaling
AMPK activity (ACC S79 phosphorylation) ([2]; without affecting AMPK phosphorylation): Increased AMPK activity

c1cc(-c2cnn3cc(-c4ccc(OCCN5CCOCC5)cc4)cnc23)ccn1 [Compound C, 4-(2-(4-(3-(pyridin-4-yl)pyrazolo[1,5-a]pyrimidin-6-yl)phenoxy)ethyl)morpholine, reference compound]
rescue of Wnt signaling inhibited by FTU-11 (3 μM) and FDN-4E (3 μM) ([1]; 5 μM): no effect
urea-induced AMPK phosphorylation and ACC phosphorylation ([2]; 5 μM): decreased

N#CC(C#N)=NNc1ccc(OC(F)(F)F)cc1 [FCCP, N-(4-(trifluoromethoxy)phenyl)carbonohydrazonoyl dicyanide, reference compound]
inhibition of Wnt signaling ([1]; concentration not given): inhibited Wnt signaling
AMPK activation [2]: strongly activated AMPK
rate of ATP production in mitochondria ([4]; 1 μM, control): decreased the rates of ATP production in mitochondria
uncoupling: OCR inhibited by oligomycin ([5]; 1 μM, control): increased OCR inhibited by oligomycin
uncoupling: OCR blocked by oligomycin ([6]; control, 1 μM): rescued

O=C(Nc1ccc(C(F)(F)F)cc1)Nc1cc(F)c(F)c(F)c1 [FDN-4E, 1-(4-(trifluoromethyl)phenyl)-3-(3,4,5-trifluorophenyl)urea]
inhibition of Wnt signaling ([1]; concentration not given): inhibited Wnt signaling
TOPFlash and FOPFlash activity [7]: inhibited TOPFlash but not FOPFlash activity
proliferation of colon cancer cells [8]: inhibited the proliferation of colon cancer cells at sub-micromolar concentrations
Wnt target genes [9]: inhibited Wnt target genes
ACC (S79 phosphorylation) [2]: inhibited ACC
AMPK activity (T172 phosphorylation) [2]: increased AMPK activity

Cc1cc([N+](=O)[O-])ccc1N(C)S(=O)(=O)c1cc(Cl)ccc1Cl [FH535-M, 2,5-dichloro-N-methyl-N-(2-methyl-4-nitrophenyl)benzenesulfonamide]
inhibition of Wnt signaling ([1]; 3 μM): lost activities
AMPK activity (T172 phosphorylation) [2]: lost activities
uncoupling: OCR inhibited by oligomycin ([5]; testing compound 3 μM): no longer functioned as a mitochondrial uncoupler
uncoupling: OCR blocked by oligomycin ([6]; 5 μM/1 μM): inactive

O=C(Nc1nnc(C(F)(F)F)s1)NC(CC(F)(F)F)(C(F)(F)F)C(F)(F)F [FTU-11, 1-(1,1,1,4,4,4-hexafluoro-2-(trifluoromethyl)butan-2-yl)-3-(5-(trifluoromethyl)-1,3,4-thiadiazol-2-yl)urea]
concentration at which Wnt signaling was inhibited ([1]; 96-well assay using stable cell line): 0.5 mM
TOPFlash and FOPFlash activity [7]: inhibited TOPFlash but not FOPFlash activity
proliferation of colon cancer cells [8]: inhibited the proliferation of colon cancer cells at sub-micromolar concentrations
Wnt target genes [9]: inhibited Wnt target genes
ACC (S79 phosphorylation) [2]: inhibited ACC
AMPK activity (T172 phosphorylation) [2]: increased AMPK activity
AMPK activation [2]: equal in potency to FDN-4E
rate of ATP production in mitochondria ([4]; 3 μM): decreased the rates of ATP production in mitochondria
mitochondrial membrane potential [10]: reduced mitochondrial membrane potential
mitochondrial membrane potential ([10]; listed as FTC-11): significantly reduced the membrane potential of mitochondria
uncoupling: OCR inhibited by oligomycin ([5]; testing compound 3 μM): increased OCR inhibited by oligomycin

O=C1[C@H](Cc2ccc(O)cc2)N2C(=O)CCN(C(=O)NCc3ccccc3)[C@H]2CN1Cc1cccc2ccccc12 [ICG-001, (6S,9aS)—N-benzyl-6-(4-hydroxybenzyl)-8-(naphthalen-1-ylmethyl)-4,7-dioxohexahydro-2H-pyrazino[1,2-c]pyrimidine-1(6H)-carboxamide, reference compound]
inhibition of Wnt signaling ([1]; concentration not given): only inhibited Wnt signaling
AMPK activation [2]: no effect on AMPK

CN(c1ccc([N+](=O)[O-])c2ccccc12)S(=O)(=O)c1cc(Cl)ccc1Cl [Y3-M, 2,5-dichloro-N-methyl-N-(4-nitronaphthalen-1-yl)benzenesulfonamide]
inhibition of Wnt signaling ([1]; 3 μM): lost activities
AMPK activity (T172 phosphorylation) [2]: lost activities
uncoupling: OCR inhibited by oligomycin ([5]; testing compound 3 μM): failed as a mitochondrial uncoupler
uncoupling: OCR blocked by oligomycin ([6]; 5 μM/1 μM): inactive

CC[C@H]1/C=C/C=C/C[C@@H](C)[C@H](O)[C@@](C)(O)C(=O)[C@@H](C)[C@H](O)[C@@H](C)C(=O)[C@@H](C)[C@H](O)[C@@H](C)/C=C/C(=O)O[C@@H]2[C@H](C)[C@H](CC1)O[C@]1(CC[C@H](C)[C@H](C[C@@H](C)O)O1)[C@H]2C [oligomycin, reference compound]
inhibition of Wnt signaling ([1]; concentration not given): inhibited Wnt signaling
AMPK activation [2]: activated AMPK
oxidative phosphorylation [5]: inhibited oxidative phosphorylation

C=C(C)[C@H]1Cc2c(ccc3c2O[C@@H]2COc4cc(OC)c(OC)cc4[C@@H]2C3=O)O1 [rotenone, reference compound]
inhibition of Wnt signaling ([1]; concentration not given): inhibited Wnt signaling
AMPK activation [2]: activated AMPK
oxidative phosphorylation [5]: inhibited oxidative phosphorylation

antimycin [reference compound]
inhibition of Wnt signaling ([1]; concentration not given): inhibited Wnt signaling
AMPK activation [2]: activated AMPK
oxidative phosphorylation [5]: inhibited oxidative phosphorylation
